# Key:
# Type in all cases: binding
# FZD1 = target: T1, FZD1 (Homo sapiens, UniProt Q9UP38); assay: NanoBRET screen HiBiT-FZD1 in HEK293
# T1 construct: purchased Promega (in-house HiBiT-GPCR construct library, NanoBRET)
# Experimental: (§1) Each tracer candidate was screened across the entire library of HiBiT-GPCR constructs using NanoBRET as the detection modality. As depicted in Figure 4A, the specificity of interactions was evaluated through decrease in BRET due to competitive displacement of a bound tracer by excess parental compound. Each tracer was analyzed for binding to each HiBiT-GPCR fusion in the absence and in the presence of competing parental compound. Briefly, HEK293 cells were transfected with HiBiT-GPCR constructs diluted into promoterless DNA to reduce expression and maximize translocation to the cell surface. Each tracer candidate was then screened at concentrations of 1 μM and 0.1 μM across cells expressing these fusions. Cells were treated for 1.5 h with tracer either alone or in the presence of 20 μM competing parental compound (i.e., control). BRET was measured upon addition of purified LgBiT and subsequent complementation with HiBiT genetically fused to a GPCR. The specificity of interactions was assessed through a decrease in BRET signal due to competitive displacement of the bound tracer. To further gauge the robustness of these interactions, the fold response over the control (i.e., BRETtracer/BRETcontrol) was calculated. We chose a 1.5-fold response, which translates to ≥7-fold signal over noise as the minimal threshold required to score an interaction as positive. […]. Below we highlight the screening results obtained for our exemplary fluorescent tracers based on Clozapine, Amitriptyline and AZD1283.
# (§2) HiBiT-GPCR DNA constructs were diluted in 10 mM Tris pH 8 to a final concentration of 0.01 μg/μL, arrayed in 96-well plates and stored at −20 °C. For transfection, HEK293 cells were suspended in Opti-MEM (without phenol red) supplemented with 2% fetal bovine serum (Seradigm) and 100 units/mL penicillin–streptomycin (Gibco) at a final concentration of 220,000 cells/mL and dispensed into white 96-well plates at 90 μL/well. Subsequent transfections and screens were carried using an Agilent Bravo Automated Liquid Handling Platform. First, the 96-well HiBiT DNA arrays were diluted 25-fold in Opti-MEM (without serum or phenol red) to a final concentration of 0.0004 μg/μL and 20 μL of the diluted DNAs were transferred into new 96-well plates. Next, promoterless carrier DNA (1 μg/μL) was diluted 25-fold (0.04 μg/μL) and then dispensed into the diluted arrays at 20 μL/well. Following brief mixing, Viafect transfection reagent (Promega) diluted 16-fold into Opti-MEM was dispensed into the plates at 40 μL/well. After mixing by pipetting, plates were incubated for 10 min on the pipetting station deck. The DNA-transfection reagent complexes were then added to plates containing cells. To facilitate the screen, 10 μL of DNA-transfection reagent complexes were added in duplicates to the top 4 and bottom 4 rows, resulting in two identical 48-well arrays per plate. Plates with transfected cells were incubated for 18–20 h at 37 °C/5% CO2. A screen of each tracer across the entire library using two different concentrations requires duplicate plates of transfected cells. Depending on the number of tracers being screened, transfections can be scaled up using the same ratios. The next day, for each tracer, four 20× screening solutions in tracer dilution buffer (Promega) were prepared: two duplicates at final concentration of 20 μM and two duplicates at a final concentration of 2 μM. A competing unmodified compound was added to one of each duplicate at a final concentration of 400 μM. The four resulting solutions were diluted 4-fold in Opti-MEM without serum or phenol red to generate 5× solutions (5 µM and 0.5 µM tracer +/− 100 μM competing compound). To screen the library, a BioTek MultiFlo FX liquid dispenser was used to dispense 22.5 µL of tracer solution to the top 4 rows and 22.5 µL tracer + competing compound solution to the 4 bottom rows. Plates were briefly mixed on an orbital shaker and incubated for 1.5 h at room temperature. […]
# SSTR3 = target: T2, SSTR3 (Homo sapiens, UniProt P32745); assay: NanoBRET screen HiBiT-SSTR3 in HEK293
# T2 construct: purchased Promega (in-house HiBiT-GPCR construct library, NanoBRET)
# T2 sequence (P32745 whole entry): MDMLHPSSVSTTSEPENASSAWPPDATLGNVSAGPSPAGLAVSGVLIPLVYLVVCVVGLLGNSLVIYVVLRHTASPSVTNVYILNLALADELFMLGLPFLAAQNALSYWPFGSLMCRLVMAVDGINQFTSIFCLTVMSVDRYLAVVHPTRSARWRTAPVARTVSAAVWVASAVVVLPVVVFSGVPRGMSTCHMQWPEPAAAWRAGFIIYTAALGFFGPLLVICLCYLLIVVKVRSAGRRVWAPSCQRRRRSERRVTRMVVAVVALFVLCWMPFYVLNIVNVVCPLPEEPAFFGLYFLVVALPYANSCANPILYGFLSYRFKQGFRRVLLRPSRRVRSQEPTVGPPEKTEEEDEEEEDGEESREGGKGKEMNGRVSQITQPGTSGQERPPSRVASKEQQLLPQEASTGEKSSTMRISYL
# Experimental: as §1, §2
# EDNRA = target: T3, EDNRA (Homo sapiens, UniProt P25101); assay: NanoBRET screen HiBiT-EDNRA in HEK293
# T3 construct: purchased Promega (in-house HiBiT-GPCR construct library, NanoBRET)
# T3 sequence (P25101 21-427): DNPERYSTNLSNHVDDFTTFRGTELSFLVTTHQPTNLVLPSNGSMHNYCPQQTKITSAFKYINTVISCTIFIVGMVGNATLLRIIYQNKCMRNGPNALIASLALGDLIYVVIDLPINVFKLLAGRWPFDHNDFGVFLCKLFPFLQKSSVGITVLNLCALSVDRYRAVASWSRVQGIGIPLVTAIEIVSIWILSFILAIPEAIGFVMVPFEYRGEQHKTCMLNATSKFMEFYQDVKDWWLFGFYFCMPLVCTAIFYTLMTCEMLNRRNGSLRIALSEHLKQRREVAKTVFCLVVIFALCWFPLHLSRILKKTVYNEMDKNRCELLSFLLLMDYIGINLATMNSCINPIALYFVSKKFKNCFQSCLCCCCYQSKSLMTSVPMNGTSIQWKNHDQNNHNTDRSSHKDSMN
# Experimental: as §1, §2
# VIPR2 = target: T4, VIPR2 (Homo sapiens, UniProt P41587); assay: NanoBRET screen HiBiT-VIPR2 in HEK293
# T4 construct: purchased Promega (in-house HiBiT-GPCR construct library, NanoBRET)
# T4 sequence (P41587 24-438): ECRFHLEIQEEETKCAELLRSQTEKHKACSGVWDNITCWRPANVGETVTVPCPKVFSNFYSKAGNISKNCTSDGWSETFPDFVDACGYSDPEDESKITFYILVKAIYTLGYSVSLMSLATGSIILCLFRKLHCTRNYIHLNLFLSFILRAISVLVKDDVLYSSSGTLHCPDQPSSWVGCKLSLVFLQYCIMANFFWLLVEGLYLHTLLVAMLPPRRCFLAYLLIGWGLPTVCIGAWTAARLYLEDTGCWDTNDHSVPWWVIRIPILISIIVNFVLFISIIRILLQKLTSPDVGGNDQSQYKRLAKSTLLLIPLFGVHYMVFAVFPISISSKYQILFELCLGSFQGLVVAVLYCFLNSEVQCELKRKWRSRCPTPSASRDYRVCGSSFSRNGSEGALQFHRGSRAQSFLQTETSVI
# Experimental: as §1, §2
# CCR4 = target: T5, CCR4 (Homo sapiens, UniProt P51679); assay: NanoBRET screen HiBiT-CCR4 in HEK293
# T5 construct: purchased Promega (in-house HiBiT-GPCR construct library, NanoBRET)
# T5 sequence (P51679 1-360): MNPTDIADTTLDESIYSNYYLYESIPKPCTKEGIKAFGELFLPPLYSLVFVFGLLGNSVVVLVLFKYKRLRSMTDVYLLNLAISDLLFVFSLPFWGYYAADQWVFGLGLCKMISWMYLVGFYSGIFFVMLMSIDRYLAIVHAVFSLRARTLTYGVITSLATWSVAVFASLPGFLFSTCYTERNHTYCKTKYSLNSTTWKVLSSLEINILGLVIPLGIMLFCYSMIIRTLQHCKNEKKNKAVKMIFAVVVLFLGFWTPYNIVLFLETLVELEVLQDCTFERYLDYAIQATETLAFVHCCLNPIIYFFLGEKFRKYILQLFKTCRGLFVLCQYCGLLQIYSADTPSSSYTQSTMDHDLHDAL
# Experimental: as §1, §2
# [1] = tracer at 0.1μM, listed as amitriptyline-b-2-NB590
# [2] = tracer at 1μM, listed as amitriptyline-b-2-NB590
# T1 sequence (Q9UP38 70-647): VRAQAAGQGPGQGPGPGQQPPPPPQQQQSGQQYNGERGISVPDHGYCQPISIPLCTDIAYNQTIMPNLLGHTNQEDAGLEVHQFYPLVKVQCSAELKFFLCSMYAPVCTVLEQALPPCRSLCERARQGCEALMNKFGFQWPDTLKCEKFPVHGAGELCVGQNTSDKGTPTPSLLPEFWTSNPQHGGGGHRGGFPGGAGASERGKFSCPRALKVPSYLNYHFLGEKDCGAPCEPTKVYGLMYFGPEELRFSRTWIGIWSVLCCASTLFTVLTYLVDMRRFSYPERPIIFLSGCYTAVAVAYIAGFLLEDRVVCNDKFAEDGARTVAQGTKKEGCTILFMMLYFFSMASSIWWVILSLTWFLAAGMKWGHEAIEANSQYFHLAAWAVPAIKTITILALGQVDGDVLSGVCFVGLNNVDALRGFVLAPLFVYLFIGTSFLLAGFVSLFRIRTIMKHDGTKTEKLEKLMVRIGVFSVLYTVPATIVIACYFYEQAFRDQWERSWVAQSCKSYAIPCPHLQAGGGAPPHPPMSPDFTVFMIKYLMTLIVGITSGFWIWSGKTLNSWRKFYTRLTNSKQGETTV
Structure (SMILES),"NanoBRET Fold Response (FZD1; FZD1, tracer 0.1μM)","NanoBRET Fold Response (FZD1; FZD1, tracer 1μM)","NanoBRET Fold Response (SSTR3; SSTR3, tracer 0.1μM)","NanoBRET Fold Response (SSTR3; SSTR3, tracer 1μM)","NanoBRET Fold Response (EDNRA; EDNRA, tracer 0.1μM)","NanoBRET Fold Response (EDNRA; EDNRA, tracer 1μM)","NanoBRET Fold Response (VIPR2; VIPR2, tracer 0.1μM)","NanoBRET Fold Response (VIPR2; VIPR2, tracer 1μM)","NanoBRET Fold Response (CCR4; CCR4, tracer 0.1μM)","NanoBRET Fold Response (CCR4; CCR4, tracer 1μM)",also measured
N#CN=C(NCCCOc1cccc(CN2CCCCC2)c1)NCCNC(=O)CCOCCOCCOCCOCCNC(=O)CCc1ccc2n1[B-](F)(F)[N+]1=C(c3ccc[nH]3)C=CC1=C2 [Aminopotentidine-2-NB590],1.07,1.12,1.03,0.99,1.03,1.04,1.01,1.08,1.09,0.96,–
CN(C)CCC=C1c2ccccc2CCc2ccc(C(=O)NCCNC(=O)CCOCCOCCOCCOCCNC(=O)CCc3ccc4n3[B-](F)(F)[N+]3=C(c5ccc[nH]5)C=CC3=C4)cc21 [Amitriptyline-b-2-NB590],–,–,–,–,–,–,–,–,–,–,NanoBRET Fold Response (FZD1; [1]): 0.97; NanoBRET Fold Response (FZD1; [2]): 1.14; NanoBRET Fold Response (SSTR3; tracer at 0.1μM): 0.95; NanoBRET Fold Response (SSTR3; tracer at 1μM): 0.99; NanoBRET Fold Response (EDNRA; [1]): 1.09; NanoBRET Fold Response (EDNRA; [2]): 0.94; NanoBRET Fold Response (VIPR2; [1]): 1.31; NanoBRET Fold Response (VIPR2; [2]): 1.31; NanoBRET Fold Response (CCR4; [1]): 1.02; NanoBRET Fold Response (CCR4; tracer at 1μM): 0.95
COc1ccccc1N1CCN(CCCCN2C(=O)c3ccc(CNC(=O)CCOCCOCCOCCOCCNC(=O)CCc4ccc5n4[B-](F)(F)[N+]4=C(c6ccc[nH]6)C=CC4=C5)cc3C2=O)CC1 [NAN-190-2-NB590],0.99,1.06,1.00,1.05,1.02,1.05,1.05,1.03,0.98,1.12,–
O=C(CCOCCOCCOCCOCCNC(=O)CCc1ccc2n1[B-](F)(F)[N+]1=C(c3ccc[nH]3)C=CC1=C2)NCCCN1CCN(C2=Nc3ccccc3Oc3ccc(Cl)cc32)CC1 [Loxapine-a-2-NB590],1.17,1.03,1.01,1.25,1.05,0.85,1.15,0.83,1.03,1.19,–
CCCn1c(=O)c2[nH]c(-c3ccc(OCC(=O)NCCNC(=O)CCOCCNC(=O)c4ccc(CNC(=O)CCc5ccc6n5[B-](F)(F)[N+]5=C(c7ccc[nH]7)C=CC5=C6)cc4)cc3)nc2n(CCC)c1=O [XAC-3-NB590],0.78,1.33,0.99,0.98,1.12,1.15,0.72,0.91,1.36,1.29,–
CN(C)CCC=C1c2ccccc2CCc2ccc(C(=O)NCCNC(=O)CCOCCOCCOCCOCCNC(=O)CCc3ccc4n3[B-](F)(F)[N+]3=C(c5ccc[nH]5)C=CC3=C4)cc21 [Amitriptyline-a-2-NB590],–,–,–,–,–,–,–,–,–,–,NanoBRET Fold Response (FZD1; tracer at 0.1μM): 0.92; NanoBRET Fold Response (FZD1; tracer at 1μM): 0.98; NanoBRET Fold Response (SSTR3; tracer at 0.1μM): 1.05; NanoBRET Fold Response (SSTR3; tracer at 1μM): 1.05; NanoBRET Fold Response (EDNRA; tracer at 0.1μM): 0.99; NanoBRET Fold Response (EDNRA; tracer at 1μM): 0.99; NanoBRET Fold Response (VIPR2; tracer at 0.1μM): 0.95; NanoBRET Fold Response (VIPR2; tracer at 1μM): 1.02; NanoBRET Fold Response (CCR4; tracer at 0.1μM): 0.92; NanoBRET Fold Response (CCR4; tracer at 1μM): 1.01
CCOC(=O)c1cc(C#N)c(N2CCC(C(=O)NS(=O)(=O)Cc3ccccc3/C=C/C(=O)NCCNC(=O)CCc3ccc4n3[B-](F)(F)[N+]3=C(c5ccc[nH]5)C=CC3=C4)CC2)nc1C [AZD1283-1-NB590],–,–,–,–,–,–,–,–,–,–,"NanoBRET Fold Response (FZD1; FZD1, 0.1μM): 1.06; NanoBRET Fold Response (FZD1; FZD1, 1μM): 1.07; NanoBRET Fold Response (SSTR3; SSTR3, 0.1μM): 1.07; NanoBRET Fold Response (SSTR3; SSTR3, 1μM): 1.13; NanoBRET Fold Response (EDNRA; EDNRA, 0.1μM): 1.01; NanoBRET Fold Response (EDNRA; EDNRA, 1μM): 1.02; NanoBRET Fold Response (VIPR2; VIPR2, 0.1μM): 1.19; NanoBRET Fold Response (VIPR2; VIPR2, 1μM): 1.15; NanoBRET Fold Response (CCR4; CCR4, 0.1μM): 1.09; NanoBRET Fold Response (CCR4; CCR4, 1μM): 1.07"

# — publication PMC8151276, “An Integrated Approach toward NanoBRET Tracers for Analysis of GPCR Ligand Engagement” (Molecules, 2021)
